Assay results: patent US7378384B2, “WT1 substitution peptides” (International Institute of Cancer Immunology, Inc., priority 2002, dated 2008)
“Also recorded” adds a separate entry of the source. Non-standard residues stand in square brackets, D forms with d. No end group written: not given here. Cit = NC(=O)NCCC[C@H](N)C(=O)O; Orn = NCCC[C@H](N)C(=O)O; Abu = CC[C@H](N)C(=O)O

Legend:
[1] = tested on: HLA-A2402/K^b transgenic mice; assay: In vivo immunogenicity (CTL-inducing activity): immunization of HLA-A2402/K^b transgenic mice, 51Cr release assay of in vitro restimulated splenocytes; parameters: species or system mouse
Description: In vivo immunogenicity of each antigen peptide was evaluated using the HLA-A2402/K^b transgenic mice. The preparation of the transgenic mice and the determination of in vivo immunogenicity were conducted according to WO 02/47474, and Int J. Cancer. 100, 565-570 (2002) that describe them in detail.
(§1) The non-substituted type peptide and the substituted type peptides as described above were synthesized using Fmoc method. The peptides synthesized were each adjusted to 40 mg/ml in DMSO, and each diluted with a sterilized water to 2.4 mg/ml. They were then mixed with a 1.27 parts of Freund's incomplete adjuvant (ISA51) using a glass syringe to prepare a water-in-oil emulsion. The resultant emulsion (200 μl) was injected into the HLA-A2402/K^b transgenic mouse subcutaneously in the base of the tail for immunization.
Seven days after the immunization, the spleen was removed and grounded on the frosted part of glass slide, and splenocytes were recovered and prepared. A portion of the splenocytes undergone hemolysis treatment with an ACK buffer (0.15 M NH4Cl, 10 mM KHCO3, 0.1 mM EDTA, pH 7.2-7.4) was pulsed with the above-mentioned peptide compositions at 100 μg/ml for 1 hour, and seeded into a 24-well plate at 7×10^5/well. Simultaneously, splenocytes not pulsed with any peptide (7×10^6/well) were added together, and stimulated in vitro and incubated at 37° C. for 5 to 6 days. The in vitro stimulation was carried out in RPMI1640 medium supplemented with 10% FCS, 10 mM HEPES, 20 mM L-glutamine, 1 mM sodium pyruvate, 1 mM MEM nonessential amino acids, 1% MEM vitamin and 55 μM 2-mercaptoethanol.
The test for cytotoxic activity was conducted according to the conventional manner. EL4-A2402/K^b cells obtained by transforming EL-4 cells (DAINIPPON PHARMACEUTICAL CO., LTD., Catalogue No. 06-039) with an expression vector encoding HLA-A2402/K^b, and the EL4-A2402/K^b cells pulsed with peptide A, B, C, D, E, or F were used as target cells (T). The EL4-A2402/K^b cells were prepared in a similar manner to the preparation of Jurkat-A2402/K^b cells described in WO 02/47474.
These cells were labeled with ^51Cr (3.7 MBq/10^6 cells) and pulsed with the peptide at 100 μg/ ml for an hour (The labeling was carried out over 2 hours, and 1 hour after the initiation of labeling, the peptide was added). Splenocytes in vitro stimulated and incubated were used as effector cells (E). They were combined with the target cells at various ratios, and ^51Cr release assay (J. Immunol., 1997; 159: 4753) was conducted to determine the cytotoxic activity of the effector cells. […]
as §1, with “The” for “The non-substituted type peptide and the”, “peptides” for “peptides as described above”, “physiological saline” for “sterilized water”
The test for cytotoxic activity was conducted according to the conventional manner. EL4-A2402/K^b cells obtained by transforming EL-4 cells with an expression vector encoding HLA-A2402/K^b, and the EL4-A2402/K^b cells pulsed with peptide K, L, or M were used as target cells (T).
These cells were labeled with ^51Cr (3.7 MBq/10^6 cells) and pulsed with the peptide at 100 μg/ml for an hour (The labeling was carried out over 2 hours, and 1 hour after the initiation of labeling, the peptide was added). Splenocytes in vitro stimulated and incubated were used as effector cells (E). They were combined with the target cells at various ratios, and ^51Cr release assay (J. Immunol., 1997; 159: 4753) was conducted to determine the cytotoxic activity of the effector cells.

CTLs = conditions: Clin. Cancer. Res. 8: 2626, 2002, and WO 00/06602; cited from earlier work
HLA-A24 antigen = conditions: compared with the natural type peptide WT1235-243; cited from earlier work
[2] = Example 1, s.c. immunization with peptide in ISA51 water-in-oil emulsion, splenocytes 7 days after, target EL4-A2402/K^b cells pulsed with the peptide at 100 μg/ml vs not pulsed
[3] = Example 3, peptide with KLH in ISA51 emulsion s.c., target EL4-A2402/K^b cells pulsed with the peptide at 20 μg/ml vs not pulsed
[4] = Example 4, peptide in saline/ISA51 emulsion s.c., target EL4-A2402/K^b cells pulsed with the peptide at 100 μg/ml vs not pulsed

Substance: AMTWNQMNL [peptide H]
- immunogenicity (activity to induce CTLs); cytotoxic activity (% Specific Lysis) vs E/T ratio ([1]; Example 3, peptide with KLH in ISA51 emulsion s.c., target Jurkat-A2402/K^b cells pulsed with the peptide at 20 μg/ml vs not pulsed): have an immunogenicity (an activity to induce CTLs); also recorded: specific CTLs were induced

Substance: AYTWNQMNL [peptide C]
- immunogenicity (activity to induce CTLs); cytotoxic activity (% Specific Lysis) vs E/T ratio [1, 2]: specific CTLs were induced

Substance: Abu-Tyr-Thr-Trp-Asn-Gln-Met-Asn-Leu ([Abu]YTWNQMNL) [peptide D]
- immunogenicity (activity to induce CTLs); cytotoxic activity (% Specific Lysis) vs E/T ratio [1, 2]: specific CTLs were induced

Substance: CMTWNQMNL [WT1235-243]
- activity to induce CTLs in HLA-A24-restricted manner (CTLs): having an activity to induce CTLs in HLA-A24-restricted manner

Substance: CYTWNQMNL [peptide A, reference compound]
- binding activity to the HLA-A24 antigen (HLA-A24 antigen): higher binding activity to the HLA-A24 antigen than the natural type peptide
- immunogenicity (activity to induce CTLs); cytotoxic activity (% Specific Lysis) vs E/T ratio [1, 2]: specific CTLs were induced

Substance: Cit Tyr Thr Trp Asn Gln Met Asn Leu ([Cit]YTWNQMNL) [peptide J]
- immunogenicity (activity to induce CTLs); cytotoxic activity (% Specific Lysis) vs E/T ratio [1, 3]: have an immunogenicity (an activity to induce CTLs); also recorded: specific CTLs were induced

Substance: FYTWNQMNL [peptide L]
- immunogenicity (activity to induce CTLs); cytotoxic activity (% Specific Lysis) vs E/T ratio [1, 4]: have an immunogenicity (an activity to induce CTLs); also recorded: specific CTLs were induced

Substance: KYTWNQMNL [peptide F]
- immunogenicity (activity to induce CTLs); cytotoxic activity (% Specific Lysis) vs E/T ratio [1, 2]: specific CTLs were induced

Substance: LYTWNQMNL [peptide K]
- immunogenicity (activity to induce CTLs); cytotoxic activity (% Specific Lysis) vs E/T ratio [1, 4]: have an immunogenicity (an activity to induce CTLs); also recorded: specific CTLs were induced

Substance: NYTWNQMNL [peptide M]
- immunogenicity (activity to induce CTLs); cytotoxic activity (% Specific Lysis) vs E/T ratio [1, 4]: have an immunogenicity (an activity to induce CTLs); also recorded: specific CTLs were induced

Substance: Orn Tyr Thr Trp Asn Gln Met Asn Leu ([Orn]YTWNQMNL) [peptide I]
- immunogenicity (activity to induce CTLs); cytotoxic activity (% Specific Lysis) vs E/T ratio [1, 3]: have an immunogenicity (an activity to induce CTLs); also recorded: specific CTLs were induced

Substance: RYTWNQMNL [peptide E]
- immunogenicity (activity to induce CTLs); cytotoxic activity (% Specific Lysis) vs E/T ratio [1, 2]: specific CTLs were induced

Substance: SMTWNQMNL [peptide G]
- immunogenicity (activity to induce CTLs); cytotoxic activity (% Specific Lysis) vs E/T ratio [1, 3]: have an immunogenicity (an activity to induce CTLs); also recorded: specific CTLs were induced

Substance: SYTWNQMNL [peptide B]
- immunogenicity (activity to induce CTLs); cytotoxic activity (% Specific Lysis) vs E/T ratio [1, 2]: specific CTLs were induced
